Measured values published in patent US12655116B2, “Substituted isophthalic acid diamides” (Bayer Aktiengesellschaft, priority 2020, dated 2026).

Key:
[1] = tested on: AMARE; assay: Post-emergence herbicidal action against AMARE; type: in vivo, Amaranthus retroflexus; details: 20 g/ha, visual assessment about 3 weeks after treatment, 100% = plants have died, 0% = like control plants
How it was run: (§1)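 Greenhouse plants in sandy loam were sprayed at the one-leaf stage, 2 to 3 weeks after sowing, with WP or EC formulations as aqueous suspension or emulsion (600 to 800 l/ha water, 0.2% wetting agent). Visual damage was scored about 3 weeks later versus untreated controls, 0% = like control, 100% = dead.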

[2] = tested on: ECHCG; assay: Post-emergence herbicidal action against ECHCG; type: in vivo, Echinochloa crus-galli; details: dosage 20 g/ha
How it was run: as §1

[3] = tested on: HORMU; assay: Post-emergence herbicidal action against HORMU; type: in vivo, Hordeum murinum; details: dosage 20 g/ha
Procedure: Seeds of monocotyledonous and dicotyledonous weed and crop plants are laid out in sandy loam soil in wood-fiber pots, covered with soil and cultivated in a greenhouse under good growth conditions. 2 to 3 weeks after sowing, the test plants are treated at the one-leaf stage. The compounds of the invention, formulated in the form of wettable powders (WP) or as emulsion concentrates (EC), are then sprayed onto the green parts of the plants in the form of an aqueous suspension or emulsion at a water application rate equivalent to 600 to 800 l/ha, with addition of 0.2% wetting agent. After the test plants have been left to stand in the greenhouse under optimal growth conditions for about 3 weeks, the action of the preparations is assessed visually in comparison to untreated controls (herbicidal action in percent (%): 100% activity=the plants have died, 0% activity=like control plants). […] The tables below illustrate, in an illustrative manner, the post-emergence herbicidal action of the compounds of the invention, the herbicidal activity being stated in percent.

[4] = tested on: AVEFA; assay: Pre-emergence herbicidal action against AVEFA; type: in vivo, Avena fatua; details: 80 g/ha, pre-emergence
How it was run: (§2)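 Pre-emergence soil-surface spray of formulated compound (WP or EC; 600 to 800 l/ha; 0.2% wetting agent) over seeds sown in sandy loam. After 3 weeks under greenhouse conditions, damage is estimated visually in percent against untreated plants.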

[5] = tested on: ALOMY; assay: Pre-emergence herbicidal action against ALOMY; type: in vivo, Alopecurus myosuroides; details: pre-emergence
How it was run: as §2

[6] = tested on: PHBPU; assay: Post-emergence herbicidal action against PHBPU; type: in vivo, Pharbitis purpurea; details: dosage 20 g/ha
How it was run: as §1

[7] = tested on: LOLRI; assay: Pre-emergence herbicidal action against LOLRI; type: in vivo, Lolium rigidum; details: 80 g/ha
How it was run: as §2

[8] = tested on: VERPE; assay: Post-emergence herbicidal action against VERPE; type: in vivo, Veronica persica
How it was run: as §1

[9] = tested on: DIGSA; assay: Pre-emergence herbicidal action against DIGSA; type: in vivo, Digitaria sanguinalis
How it was run: as §2

[10] = tested on: ALOMY; assay: Post-emergence herbicidal action against ALOMY; type: in vivo, Alopecurus myosuroides; details: dosage 20 g/ha, visual assessment about 3 weeks after treatment vs untreated controls
How it was run: as §1

[11] = tested on: POLCO; assay: Pre-emergence herbicidal action against POLCO; type: in vivo, Polygonum convolvulus; details: dosage 80 g/ha
How it was run: as §2

[12] = tested on: ABUTH; assay: Pre-emergence herbicidal action against ABUTH; type: in vivo, Abutilon theophrasti
How it was run: as §2

[13] = tested on: VIOTR; assay: Post-emergence herbicidal action against VIOTR; type: in vivo, Viola tricolor
How it was run: as §1

[14] = tested on: AMARE; assay: Pre-emergence herbicidal action against AMARE; type: in vivo, Amaranthus retroflexus
How it was run: as §2

[15] = tested on: MATIN; assay: Post-emergence herbicidal action against MATIN; type: in vivo, Matricaria inodora
How it was run: as §1

[16] = tested on: HORMU; assay: Pre-emergence herbicidal action against HORMU; type: in vivo, Hordeum murinum; details: 80 g/ha, pre-emergence
How it was run: as §2

[17] = tested on: SETVI; assay: Pre-emergence herbicidal action against SETVI; type: in vivo, Setaria viridis
How it was run: as §2

[18] = tested on: MATIN; assay: Pre-emergence herbicidal action against MATIN; type: in vivo, Matricaria inodora
How it was run: as §2

[19] = tested on: PHBPU; assay: Pre-emergence herbicidal action against PHBPU; type: in vivo, Pharbitis purpurea; details: dosage 80 g/ha
How it was run: as §2

[20] = tested on: STEME; assay: Pre-emergence herbicidal action against STEME; type: in vivo, Stellaria media
How it was run: as §2

[21] = tested on: VERPE; assay: Pre-emergence herbicidal action against VERPE; type: in vivo, Veronica persica; details: dosage 80 g/ha
How it was run: as §2

[22] = tested on: VIOTR; assay: Pre-emergence herbicidal action against VIOTR; type: in vivo, Viola tricolor
How it was run: as §2

[23] = tested on: STEME; assay: Post-emergence herbicidal action against STEME; type: in vivo, Stellaria media
How it was run: as §1

[24] = tested on: ECHCG; assay: Pre-emergence herbicidal action against ECHCG; type: in vivo, Echinochloa crus-galli; details: 80 g/ha
How it was run: as §2

[25] = tested on: ABUTH; assay: Post-emergence herbicidal action against ABUTH; type: in vivo, Abutilon theophrasti; details: visual assessment about 3 weeks after treatment vs untreated controls
How it was run: as §1

[26] = tested on: SETVI; assay: Post-emergence herbicidal action against SETVI; type: in vivo, Setaria viridis; details: Setaria viridis, 504 h
How it was run: as §1

[27] = tested on: AVEFA; assay: Post-emergence herbicidal action against AVEFA; type: in vivo, Avena fatua; details: Avena fatua, 504 h, visual assessment about 3 weeks after treatment, 100% = plants have died, 0% = like control plants
How it was run: as §1

[28] = tested on: DIGSA; assay: Post-emergence herbicidal action against DIGSA; type: in vivo, Digitaria sanguinalis; details: Digitaria sanguinalis, 504 h
How it was run: as §1

[29] = 80 g/ha, scored visually after 3 weeks vs untreated controls (100% = plants have died, 0% = like control plants)
[30] = Tripleurospermum inodorum, 504 h, dosage 20 g/ha

Compound: CCn1nnnc1NC(=O)c1ccc(C(F)F)c(C(=O)NC2CC2)c1C [Example 2-46]
- Post-emergence action at 20 g/ha against AMARE in % [1]: 100%
- Post-emergence action against ECHCG in % [2]: 80%
- Post-emergence action against HORMU in % [3]: 80%
- Pre-emergence action against AVEFA in % [4]: 100%
- Pre-emergence action against ALOMY (herbicidal activity) [5, 29]: 100%
- Post-emergence action against PHBPU in % [6]: 80%
- Pre-emergence action against LOLRI in % [7]: 90%
- Post-emergence action against VERPE in % ([8]; 5 g/ha): 80%
- Post-emergence action against VERPE in % ([8]; 20 g/ha): 80%
- Pre-emergence action against DIGSA in % ([9]; dosage 20 g/ha): 100%
- Pre-emergence action against DIGSA in % ([9]; dosage 80 g/ha): 100%
- Post-emergence action against ALOMY in % [10]: 80%
- Pre-emergence action against POLCO in % [11]: 90%
- Pre-emergence action against ABUTH (herbicidal activity) [12, 29]: 100%
- Pre-emergence action against ABUTH (herbicidal activity in percent) ([12]; dosage 20 g/ha, scored visually after 3 weeks vs untreated controls, 100% = plants have died, 0% = like control plants): 100%
- Post-emergence action against VIOTR in % ([13]; 5 g/ha): 80%
- Post-emergence action against VIOTR in % ([13]; 20 g/ha): 80%
- Pre-emergence action against AMARE in % ([14]; 20 g/ha, scored visually after 3 weeks vs untreated controls, 100% = plants have died, 0% = like control plants): 100%
- Pre-emergence action against AMARE in % [14, 29]: 100%
- Post-emergence action against MATIN in % ([15]; dosage 20 g/ha): 80%
- Pre-emergence action against HORMU in % [16]: 90%
- Pre-emergence action against SETVI in % ([17]; dosage 80 g/ha): 100%
- Pre-emergence action against MATIN in % ([18]; dosage 20 g/ha): 90%
- Pre-emergence action against MATIN in % ([18]; dosage 80 g/ha): 100%
- Pre-emergence action against PHBPU in % [19]: 90%
- Pre-emergence action against STEME in % ([20]; dosage 20 g/ha): 90%
- Pre-emergence action against STEME in % ([20]; dosage 80 g/ha): 100%
- Pre-emergence action against VERPE in % [21]: 90%
- Pre-emergence action against VIOTR in % ([22]; dosage 20 g/ha): 100%
- Pre-emergence action against VIOTR in % ([22]; dosage 80 g/ha): 100%
- Post-emergence action against STEME in % ([23]; 20 g/ha): 80%
- Post-emergence action against STEME in % ([23]; dosage 5 g/ha): 80%
- Pre-emergence action against ECHCG in % [24]: 90%
- Post-emergence action against ABUTH in % ([25]; dosage 5 g/ha): 80%
- Post-emergence action against ABUTH in % ([25]; dosage 20 g/ha): 80%

Compound: CCn1nnnc1NC(=O)c1ccc(C(F)(F)F)c(C(=O)NC2CC2)c1Cl [Example 2-131]
- pest or weed control at 20 g/ha ([1]; Amaranthus retroflexus, 504 h): 100%
- pest or weed control at 5 g/ha ([26]; dosage 5 g/ha): 90%
- pest or weed control at 20 g/ha ([26]; dosage 20 g/ha): 100%
- pest or weed control at 20 g/ha ([2]; Echinochloa crus-galli, 504 h): 80%
- pest or weed control at 20 g/ha ([3]; Hordeum murinum, 504 h): 100%
- pest or weed control at 80 g/ha ([4]; Avena fatua, 504 h): 100%
- pest or weed control at 80 g/ha ([5]; Alopecurus myosuroides, 504 h, 80 g/ha, scored visually after 3 weeks vs untreated controls (100% = plants have died, 0% = like control plants)): 100%
- pest or weed control at 20 g/ha ([5]; Alopecurus myosuroides, 504 h, 20 g/ha, scored visually after 3 weeks, 100% = plants have died, 0% = like control plants): 90%
- pest or weed control at 20 g/ha ([6]; Ipomoea purpurea, 504 h): 80%
- pest or weed control at 20 g/ha ([9]; Digitaria sanguinalis, 504 h, dosage 20 g/ha): 90%
- pest or weed control at 80 g/ha ([9]; Digitaria sanguinalis, 504 h, dosage 80 g/ha): 100%
- pest or weed control at 20 g/ha ([10]; Alopecurus myosuroides, 504 h): 80%
- pest or weed control at 80 g/ha ([11]; Fallopia convolvulus, 504 h): 90%
- pest or weed control at 80 g/ha ([12]; Abutilon theophrasti, 504 h, 80 g/ha, scored visually after 3 weeks vs untreated controls (100% = plants have died, 0% = like control plants)): 100%
- pest or weed control at 20 g/ha ([12]; Abutilon theophrasti, 504 h, dosage 20 g/ha, scored visually after 3 weeks vs untreated controls, 100% = plants have died, 0% = like control plants, read-out: Pre-emergence action against ABUTH (herbicidal activity in percent)): 100%
- pest or weed control at 5 g/ha ([27]; 5 g/ha): 80%
- pest or weed control at 20 g/ha ([27]; 20 g/ha): 80%
- pest or weed control at 5 g/ha ([13]; Viola tricolor, 504 h, 5 g/ha): 100%
- pest or weed control at 20 g/ha ([13]; Viola tricolor, 504 h, 20 g/ha): 100%
- pest or weed control at 20 g/ha ([14]; Amaranthus retroflexus, 504 h, 20 g/ha, scored visually after 3 weeks vs untreated controls, 100% = plants have died, 0% = like control plants): 100%
- pest or weed control at 80 g/ha ([14]; Amaranthus retroflexus, 504 h, 80 g/ha, scored visually after 3 weeks vs untreated controls, 100% = plants have died, 0% = like control plants): 100%
- pest or weed control at 5 g/ha ([15]; Tripleurospermum inodorum, 504 h, dosage 5 g/ha): 90%
- pest or weed control at 20 g/ha [15, 30]: 100%
- pest or weed control at 80 g/ha ([16]; Hordeum murinum, 504 h): 80%
- pest or weed control at 20 g/ha ([17]; Setaria viridis, 504 h, dosage 20 g/ha): 80%
- pest or weed control at 80 g/ha ([17]; Setaria viridis, 504 h, dosage 80 g/ha): 100%
- pest or weed control at 20 g/ha [18, 30]: 90%
- pest or weed control at 80 g/ha ([18]; Tripleurospermum inodorum, 504 h, dosage 80 g/ha): 100%
- pest or weed control at 80 g/ha ([19]; Ipomoea purpurea, 504 h): 80%
- pest or weed control at 5 g/ha ([28]; 5 g/ha): 90%
- pest or weed control at 20 g/ha ([28]; 20 g/ha): 90%
- pest or weed control at 20 g/ha ([20]; Stellaria media, 504 h, dosage 20 g/ha): 100%
- pest or weed control at 80 g/ha ([20]; Stellaria media, 504 h, dosage 80 g/ha): 100%
- pest or weed control at 20 g/ha ([22]; Viola tricolor, 504 h, dosage 20 g/ha): 100%
- pest or weed control at 80 g/ha ([22]; Viola tricolor, 504 h, dosage 80 g/ha): 100%
- pest or weed control at 20 g/ha ([23]; Stellaria media, 504 h, 20 g/ha): 90%
- pest or weed control at 5 g/ha ([23]; Stellaria media, 504 h, dosage 5 g/ha): 90%
- pest or weed control at 80 g/ha ([24]; Echinochloa crus-galli, 504 h): 100%
- pest or weed control at 20 g/ha ([25]; Abutilon theophrasti, 504 h, dosage 20 g/ha): 90%
